Like-named read-outs stand apart in the source and are kept apart here.
Legend:
HCV (JFH-5aFlucm4) = test: Evaluation of anti-HCV activity 1: huh7.5.1 cells inoculated with HCV carrying renilla luciferase reporter; type: cell-based; conditions: Hepatitis C virus
Protocol: To evaluate the anti-HCV activity of the compound represented by formula 1 of the present invention, the following experiment was performed.
The hepatoma cell line huh7.5.1 was distributed in a 12-well cell culture plate at the density of 50,000 cells/well. The cells were cultured in DMEM (Dulbecco's Modified Eagle's Medium 12800-017, GIBCO Co.) supplemented with 10% (v/v) FBS (Fetal Bovine Serum SH30406.02, Hyclone Co.) and 1% (v/v) antibiotics (penicillin/streptomycin solution SV30010, Hyclone Co.) in a 37° C. 6.0% CO2 incubator (CO2 Incubator 311, Forma Scientific Co, Lnc. USA) for 24 hours to lead cell attachment on the plate. Then, the cells were inoculated with HCV (JFH-5aFlucm4, PLoS One. 2011; 6(8):e228808.) having renilla luciferase gene as a reporter for 3 hours. Upon completion of the virus inoculation, the cell culture medium was replaced with the medium containing the compounds prepared in Examples 1˜24 at the concentration of 1 μM each. The cells were cultured in a 37° C. 6.0% CO2 incubator (CO2 Incubator 311, Forma Scientific Co, Lnc. USA) for 3 days. Three days after the infection, the cell culture medium was collected to measure the cytotoxicity in the following Experimental Example 3. The cells attached on the plate were washed with PBS (phosphate buffered saline) and then lysed by treating 100 μl of 1× passive lysis buffer (Promega, E1941). The cell lysate (10 μl) was added to renilla luciferase assay reagent (50 μl) in renilla luciferase assay system (Promega, E2820), followed by measurement of luminescence for 10 seconds using the luciferase measure program with Luminometer (GLOMAX 20/20 Luminometer, Promega). At this time, the measurement of luminescence was performed in triplicate with the groups treated with the compounds of Examples 1˜24 and the non-treated control group. The mean value was calculated and compared. The luminescence of each compound over the concentration was converted into EC50 (half maximal effective concentration) by using sigma plot program, and the results are shown in Table 2.

HCV replicon NK/R2AN = test: Evaluation of anti-HCV activity 2: inhibition of HCV replication, huh7.5.1 cells with replicon NK/R2AN, renilla luciferase; type: cell-based; conditions: for EC50: Hepatitis C virus; for EC50 (in words): duplicated HCV treated with compound
Protocol: To evaluate the anti-HCV activity, that is the activity to inhibit HCV replication, of the compound represented by formula 1 of the present invention, the following experiment was performed.
The hepatoma cell line huh7.5.1 having NK/R2AN, the replicon with which the replication and translation of HCV could be measured, was distributed in a 12-well cell culture plate at the density of 50,000 cells/well. The cells were cultured in DMEM (Dulbecco's Modified Eagle's Medium 12800-017, GIBCO Co.) supplemented with 10% (v/v) FBS (Fetal Bovine Serum SH30406.02, Hyclone Co.), 1% (v/v) antibiotics (penicillin/streptomycin solution SV30010, Hyclone Co.), and G418 (600 μg/mL, Calbiochem) in a 37° C. 6.0% CO2 incubator (CO2 Incubator 311, Forma Scientific Co, Lnc. USA) for 24 hours to lead cell attachment on the plate. Then, the cells were inoculated with HCV having renilla luciferase gene as a reporter for 3 hours. Upon completion of the virus inoculation, the cell culture medium was replaced with the medium containing the compounds prepared in Examples 1˜24 were added to the culture medium at the concentrations of 40 pM˜1 μM each. The cells were cultured in a 37° C. 6.0% CO2 incubator (CO2 Incubator 311, Forma Scientific Co, Lnc. USA) for 3 days. Three days after the infection, the cell culture medium was collected to measure the cytotoxicity in the following Experimental Example 3. The cells attached on the plate were washed with PBS (phosphate buffered saline) and then lysed by treating 100 μl of 1× passive lysis buffer (Promega, E1941). The cell lysate (10 μl) was added to renilla luciferase assay reagent (50 μl) in renilla luciferase assay system (Promega, E2820), followed by measurement of luminescence for 10 seconds using the luciferase measure program with Luminometer (GLOMAX 20/20 Luminometer, Promega). At this time, the measurement of luminescence was performed in triplicate with the groups treated with the compounds of Examples 1˜24 and the non-treated control group. The mean value was calculated and compared. The luminescence of each compound over the concentration was converted into EC50 (half maximal effective concentration) by using sigma plot program, and the results are shown in Table 3. At this time, when EC50 was under 100 pM, it was marked as A; when EC50 was in the range of 100 pM 1 nM, it was marked as B; when EC50 was in the range of 1 nM˜100 nM, it was marked as C; and when EC50 was over 100 nM, it was marked as D. The results are shown in Table 3.

[1] = Huh-7.5.1, 72 h, read-out: EC50 grade
[2] = Huh-7.5.1, replicon huh7.5.1 cells, Table 3, read-out: EC50

Row | Compound | EC50 (HCV (JFH-5aFlucm4); Huh-7.5.1) [nM] | EC50 (HCV (JFH-5aFlucm4); [1]) [nM] | EC50 (HCV replicon NK/R2AN; Huh-7.5.1) [nM] | EC50 (HCV replicon NK/R2AN; [1]) [nM] | EC50 (in words) (HCV replicon NK/R2AN) | EC50 (HCV replicon NK/R2AN; [2]) [nM]
1 | COC(=O)N[C@@H](C(=O)N1CC(=O)C[C@H]1C(=O)Nc1ccc(-c2ccc(NC(=O)[C@@H]3CC(=O)CN3C(=O)[C@H](NC(=O)OC)c3ccccc3)cc2)cc1)c1ccccc1 [Example 9, dimethyl((1R,1′R)-((5S,5′S)-5,5′-(([1,1′-biphenyl]-4,4′-diylbis(azandiyl))bis(carbonyl))bis(3-oxopyrrolidine-5,1-diyl))bis(2-oxo-1-phenylethane-2,1-diyl))dicarbamate] | < 1 | < 1 | < 0.1 | < 0.1 | significantly low | –
2 | COC(=O)N[C@@H](C(=O)N1CCCC[C@H]1C(=O)Nc1ccc(-c2ccc(NC(=O)[C@@H]3CCCCN3C(=O)[C@H](NC(=O)OC)c3ccccc3)cc2)cc1)c1ccccc1 [Example 10, dimethyl((1R,1′R)-((2S,2′S)-2,2′-(([1,1′-biphenyl]-4,4′-diylbis(azandiyl))bis(carbonyl))bis(piperidine-2,1-diyl))bis(2-oxo-1-phenylethane-2,1-diyl))dicarbamate] | – | > 100 | – | 1 to 100 | – | –
3 | COC(=O)N[C@@H](C(=O)N1CCCC[C@@H]1C(=O)Nc1ccc(-c2ccc(NC(=O)[C@H]3CCCCN3C(=O)[C@H](NC(=O)OC)c3ccccc3)cc2)cc1)c1ccccc1 [Example 11, dimethyl((1R,1′R)-((2R,2′R)-2,2′-(([1,1′-biphenyl]-4,4′-diylbis(azandiyl))bis(carbonyl))bis(piperidine-2,1-diyl))bis(2-oxo-1-phenylethane-2,1-diyl))dicarbamate] | – | > 100 | – | > 100 | – | –
4 | COC(=O)N[C@@H](C(=O)N1CCC[C@]1(C)C(=O)Nc1ccc(-c2ccc(NC(=O)[C@@]3(C)CCCN3C(=O)[C@H](NC(=O)OC)c3ccccc3)cc2)cc1)c1ccccc1 [Example 12, dimethyl((1R,1′R)-((2S,2′S)-2,2′-(([1,1′-biphenyl]-4,4′-diylbis(azandiyl))bis(carbonyl))bis(2-methylpyrrolidine-2,1-diyl))bis(2-oxo-1-phenylethane-2,1-diyl))dicarbamate] | – | > 100 | – | 1 to 100 | – | –
5 | CN(C)[C@@H](C(=O)N1CCC[C@H]1C(=O)Nc1ccc(-c2ccc(NC(=O)[C@@H]3CCCN3C(=O)[C@@H](c3ccccc3)N(C)C)cc2)cc1)c1ccccc1 [Example 14, (S,2S,2′S)—N,N′-(biphenyl-4,4′-diyl)bis(1-((S)-2-(dimethylamino)-2-phenylacetyl)pyrrolidine-2-carboxamide)] | – | 1 to 100 | – | 0.1 to 1 | – | –
6 | CCN(CC)[C@@H](C(=O)N1CCC[C@H]1C(=O)Nc1ccc(-c2ccc(NC(=O)[C@@H]3CCCN3C(=O)[C@@H](c3ccccc3)N(CC)CC)cc2)cc1)c1ccccc1 [Example 15, (S,2S,2′S)—N,N-(biphenyl-4,4′-diyl)bis(1-((S)-2-(diethylamino)-2-phenylacetyl)pyrrolidine-2-carboxamide)] | – | 1 to 100 | – | 0.1 to 1 | – | –
7 | COC(=O)N[C@@H](C(=O)N1CSC[C@H]1C(=O)Nc1ccc(-c2ccc(NC(=O)[C@@H]3CSCN3C(=O)[C@H](NC(=O)OC)c3ccccc3)cc2)cc1)c1ccccc1 [Example 21, dimethyl(1S,1S′)-2,2′-((4R,4R)-4,4′-(biphenyl-4,4′-diylbis(azandiyl))bis(oxomethylene)bis(thiazolidine-4,3-diyl))bis(2-oxo-1-phenylethane-2,1-diyl)bicarbamate] | – | 1 to 100 | < 0.1 | < 0.1 | significantly low | –
8 | COC(=O)N[C@@H](C(=O)N1CCC[C@H]1C(=O)Nc1ccc2c(c1)C(F)(F)c1cc(NC(=O)[C@@H]3CCCN3C(=O)[C@H](NC(=O)OC)c3ccccc3)ccc1-2)c1ccccc1 [Example 22, dimethyl((1R,1′R)-((2S,2′S)-2,2′-(((9,9-difluoro-9H-fluorene-2,7-diyl)bis(azandiyl))bis(carbonyl))bis(pyrrolidine-2,1-diyl))bis(2-oxo-1-phenylethane-2,1-diyl))dicarbamate] | < 1 | < 1 | – | < 0.1 | significantly low | < 0.1
9 | COC(=O)N[C@@H](C(=O)N1CCC[C@H]1C(=O)Nc1ccc2c(c1)C(C)(C)c1cc(NC(=O)[C@@H]3CCCN3C(=O)[C@H](NC(=O)OC)c3ccccc3)ccc1-2)c1ccccc1 [Example 23, dimethyl((1R,1′R)-((2S,2′S)-2,2′-(((9,9-dimethyl-9H-fluorene-2,7-diyl)bis(azandiyl))bis(carbonyl))bis(pyrrolidine-2,1-diyl))bis(2-oxo-1-phenylethane-2,1-diyl))dicarbamate] | < 1 | < 1 | – | < 0.1 | significantly low | < 0.1
10 | COC(=O)N[C@@H](C(=O)N1CCC[C@H]1C(=O)Nc1ccc2c(c1)C(=O)c1cc(NC(=O)[C@@H]3CCCN3C(=O)[C@H](NC(=O)OC)c3ccccc3)ccc1-2)c1ccccc1 [Example 24, dimethyl((1R,1′R)-((2S,2′S)-2,2′-(((9-oxo-9H-fluorene-2,7-diyl)bis(azandiyl))bis(carbonyl))bis(pyrrolidine-2,1-diyl))bis(2-oxo-1-phenylethane-2,1-diyl))dicarbamate] | – | 1 to 100 | – | < 0.1 | significantly low | < 0.1
